The data set deals with rodent lifetime carcinogenesis bioassay, tumor incidence TD50. The data set is described as follows: carcinogenic potency in animals, long-term in vivo studies, CPDB compilation (AID 1745844).

Activity calls are given as the source filed them. How the calls were made is not given here.

For the compound `Nc1ncc([N+](=O)[O-])s1`, the carcinogen call was “negative (inactive)” (mouse, strain B6C3F1, females, in feed, site: any site (literature study), lesion: several types, types named in the paper, dosed 104 weeks, study length 104 weeks) and “negative (inactive)” (mouse, strain B6C3F1, males, in feed, site: any site (literature study), lesion: several types, types named in the paper, dosed 104 weeks, study length 104 weeks). For the same compound, the TD50 is, setting by setting: (mouse, strain B6C3F1, females, in feed, site: liver, lesion: hepatocellular adenoma + hepatocellular carcinoma + neoplastic nodule, dosed 104 weeks, study length 104 weeks) 109 mg/kg/day; (mouse, strain B6C3F1, females, in feed, site: lung, lesion: alveolar/bronchiolar adenoma + alveolar/bronchiolar carcinoma, dosed 104 weeks, study length 104 weeks) 63.5 mg/kg/day; (rat, strain Fischer 344, females, in feed, site: any site (literature study), lesion: several types, types named in the paper, dosed 110 weeks, study length 111 weeks) 326 mg/kg/day; (rat, strain Fischer 344, females, in feed, site: uterus, lesion: endometrial stromal polyp, dosed 110 weeks, study length 111 weeks) 57.2 mg/kg/day (inactive); (rat, strain Fischer 344, males, in feed, site: all sites + multiple organs, lesion: lymphocytic leukemia + malignant lymphoma + undifferentiated leukemia, dosed 110 weeks, study length 111 weeks) 445 mg/kg/day; (rat, strain Fischer 344, males, in feed, site: all sites, lesion: leukemia + lymphoma, dosed 110 weeks, study length 111 weeks) 27.6 mg/kg/day. Further, the TD50 runs as follows: (rat, strain Fischer 344, males, in feed, site: any site (literature study), lesion: several types, types named in the paper, dosed 110 weeks, study length 111 weeks) 32.3 mg/kg/day; (rat, strain Fischer 344, males, in feed, site: liver, lesion: hepatocellular adenoma + hepatocellular carcinoma + neoplastic nodule, dosed 110 weeks, study length 111 weeks) 318 mg/kg/day; (rat, strain Fischer 344, males, in feed, site: multiple organs, lesion: granulocytic leukemia, dosed 110 weeks, study length 111 weeks) 90.2 mg/kg/day; (rat, strain Sprague-Dawley, females, in feed, site: any site (literature study), lesion: several types, types named in the paper, dosed 46 weeks, study length 66 weeks) 32.5 mg/kg/day; (rat, strain Sprague-Dawley, females, in feed, site: kidney/pelvis, lesion: transitional-cell carcinoma, dosed 46 weeks, study length 66 weeks) 157 mg/kg/day; (rat, strain Sprague-Dawley, females, in feed, site: lung, lesion: alveolar-cell carcinoma, dosed 46 weeks, study length 66 weeks) 157 mg/kg/day. In addition, the TD50 (rat, strain Sprague-Dawley, females, in feed, site: mammary gland, lesion: several types, types named in the paper, dosed 46 weeks, study length 66 weeks) is 44.6 mg/kg/day.
With `OCC(O)CCl` (stereo not given), the carcinogen call (rat, strain Charles River CD (Sprague-Dawley), females, by gavage, site: parathyroid, lesion: adenoma, dosed 72 weeks, study length 104 weeks) is “negative (inactive)”. In addition, the TD50 (rat, strain Charles River CD (Sprague-Dawley), males, by gavage, site: parathyroid, lesion: adenoma, dosed 72 weeks, study length 104 weeks) came to 116 mg/kg/day.
With `C[C@]12CC[C@H]3C(=CCc4cc(OS(=O)(=O)O)ccc43)[C@@H]1CCC2=O`, the carcinogen call by setting is: (rat, strain Charles River CD (Sprague-Dawley), females, in feed, site: liver, lesion: one or several types, types not named, dosed 104 weeks, study length 104 weeks) “negative (inactive)”; (rat, strain Charles River CD (Sprague-Dawley), males, in feed, site: liver, lesion: hepatoma, dosed 104 weeks, study length 104 weeks) “negative (inactive)”.
As for `O=NN1CCC[C@H]1C(=O)O`, the TD50 (rat, strain MRC, females, in drinking water, site: any site (literature study), lesion: several types, types named in the paper, dosed 75 weeks, study length 104 weeks) was 6.69 mg/kg/day (inactive). Under “rat, strain MRC, males, in drinking water, site: any site (literature study), lesion: several types, types named in the paper, dosed 75 weeks, study length 104 weeks”, the carcinogen call was “negative (inactive)”.
Take `CC(C)(C)c1cc(C(C)(C)C)c(O)c(C(C)(C)C)c1`: the carcinogen call is, setting by setting: (rat, strain Wistar, females, in feed, site: liver, lesion: one or several types, types not named, dosed 52 weeks, study length 52 weeks) “negative (inactive)”; (rat, strain Wistar, females, in feed, site: liver, lesion: one or several types, types not named, dosed 78 weeks, study length 78 weeks) “negative (inactive)”; (rat, strain Wistar, females, in feed, site: liver, lesion: one or several types, types not named, dosed 104 weeks, study length 104 weeks) “negative (inactive)”; (rat, strain Wistar, males, in feed, site: liver, lesion: one or several types, types not named, dosed 52 weeks, study length 52 weeks) “negative (inactive)”; (rat, strain Wistar, males, in feed, site: liver, lesion: one or several types, types not named, dosed 78 weeks, study length 78 weeks) “negative (inactive)”; (rat, strain Wistar, males, in feed, site: liver, lesion: one or several types, types not named, dosed 104 weeks, study length 104 weeks) “negative (inactive)”.
On to `c1ccc2occc2c1`, for which the TD50 was 45.9 mg/kg/day (mouse, strain B6C3F1, females, by gavage, site: any site (literature study), lesion: several types, types named in the paper, dosed 103 weeks, study length 104 weeks); 33.4 mg/kg/day (mouse, strain B6C3F1, females, by gavage, site: forestomach + liver + lung, lesion: squamous-cell carcinoma + squamous-cell papilloma + hepatocellular adenoma + alveolar/bronchiolar adenoma + alveolar/bronchiolar, dosed 103 weeks, study length 104 weeks); 145 mg/kg/day (mouse, strain B6C3F1, females, by gavage, site: forestomach, lesion: squamous-cell carcinoma + squamous-cell papilloma, dosed 103 weeks, study length 104 weeks); 172 mg/kg/day (mouse, strain B6C3F1, females, by gavage, site: forestomach, lesion: squamous-cell papilloma, dosed 103 weeks, study length 104 weeks); 36.4 mg/kg/day (mouse, strain B6C3F1, females, by gavage, site: liver, lesion: hepatocellular adenoma + hepatocellular carcinoma + neoplastic nodule, dosed 103 weeks, study length 104 weeks); 36.4 mg/kg/day (mouse, strain B6C3F1, females, by gavage, site: liver, lesion: hepatocellular adenoma + hepatocellular carcinoma, dosed 103 weeks, study length 104 weeks). Besides, the TD50 (mouse, strain B6C3F1, females, by gavage, site: liver, lesion: hepatocellular adenoma, dosed 103 weeks, study length 104 weeks) was 34.4 mg/kg/day; the TD50 (mouse, strain B6C3F1, females, by gavage, site: lung, lesion: alveolar/bronchiolar adenoma + alveolar/bronchiolar carcinoma, dosed 103 weeks, study length 104 weeks) was determined as 174 mg/kg/day; the TD50 (mouse, strain B6C3F1, females, by gavage, site: lung, lesion: alveolar/bronchiolar adenoma, dosed 103 weeks, study length 104 weeks) turned out to be 224 mg/kg/day; the TD50 (mouse, strain B6C3F1, females, by gavage, site: multiple organs + spleen, lesion: malignant lymphoma, undifferentiated type, dosed 103 weeks, study length 104 weeks) is 322 mg/kg/day; the TD50 (mouse, strain B6C3F1, males, by gavage, site: any site (literature study), lesion: several types, types named in the paper, dosed 103 weeks, study length 104 weeks) is 54.3 mg/kg/day; the TD50 (mouse, strain B6C3F1, males, by gavage, site: forestomach + liver + lung, lesion: squamous-cell carcinoma + squamous-cell papilloma + hepatocellular adenoma + hepatoblastoma + hepatocellular carcinoma + alveolar/, dosed 103 weeks, study length 104 weeks) turned out to be 23.9 mg/kg/day. The TD50 is, setting by setting: (mouse, strain B6C3F1, males, by gavage, site: forestomach, lesion: squamous-cell carcinoma + squamous-cell papilloma, dosed 103 weeks, study length 104 weeks) 108 mg/kg/day; (mouse, strain B6C3F1, males, by gavage, site: forestomach, lesion: squamous-cell carcinoma, dosed 103 weeks, study length 104 weeks) 383 mg/kg/day; (mouse, strain B6C3F1, males, by gavage, site: forestomach, lesion: squamous-cell papilloma, dosed 103 weeks, study length 104 weeks) 154 mg/kg/day; (mouse, strain B6C3F1, males, by gavage, site: liver, lesion: hepatoblastoma + hepatocellular carcinoma, dosed 103 weeks, study length 104 weeks) 114 mg/kg/day; (mouse, strain B6C3F1, males, by gavage, site: liver, lesion: hepatoblastoma, dosed 103 weeks, study length 104 weeks) 102 mg/kg/day; (mouse, strain B6C3F1, males, by gavage, site: liver, lesion: hepatocellular adenoma + hepatoblastoma + hepatocellular carcinoma, dosed 103 weeks, study length 104 weeks) 19.8 mg/kg/day. Also, the TD50 is 21.3 mg/kg/day (mouse, strain B6C3F1, males, by gavage, site: liver, lesion: hepatocellular adenoma + hepatocellular carcinoma + neoplastic nodule, dosed 103 weeks, study length 104 weeks); 21.3 mg/kg/day (mouse, strain B6C3F1, males, by gavage, site: liver, lesion: hepatocellular adenoma + hepatocellular carcinoma, dosed 103 weeks, study length 104 weeks); 20.5 mg/kg/day (mouse, strain B6C3F1, males, by gavage, site: liver, lesion: hepatocellular adenoma, dosed 103 weeks, study length 104 weeks); 160 mg/kg/day (mouse, strain B6C3F1, males, by gavage, site: lung, lesion: alveolar/bronchiolar adenoma + alveolar/bronchiolar carcinoma, dosed 103 weeks, study length 104 weeks); 136 mg/kg/day (mouse, strain B6C3F1, males, by gavage, site: lung, lesion: alveolar/bronchiolar adenoma, dosed 103 weeks, study length 104 weeks); 919 mg/kg/day (mouse, strain B6C3F1, males, by gavage, site: multiple organs, lesion: malignant lymphoma, lymphocytic type, dosed 103 weeks, study length 104 weeks). Further, the TD50 is 577 mg/kg/day (rat, strain Fischer 344, females, by gavage, site: any site (literature study), lesion: several types, types named in the paper, dosed 103 weeks, study length 104 weeks); 424 mg/kg/day (rat, strain Fischer 344, females, by gavage, site: kidney, lesion: tubular-cell adenocarcinoma, dosed 103 weeks, study length 104 weeks); 2090 mg/kg/day (rat, strain Fischer 344, females, by gavage, site: liver, lesion: hepatocellular adenoma + hepatocellular carcinoma + neoplastic nodule, dosed 103 weeks, study length 104 weeks); 418 mg/kg/day (rat, strain Fischer 344, females, by gavage, site: lung, lesion: alveolar/bronchiolar adenoma + alveolar/bronchiolar carcinoma, dosed 103 weeks, study length 104 weeks); 530 mg/kg/day (rat, strain Fischer 344, females, by gavage, site: lung, lesion: alveolar/bronchiolar adenoma, dosed 103 weeks, study length 104 weeks); 98.8 mg/kg/day (rat, strain Fischer 344, females, by gavage, site: subcutaneous tissue, lesion: neurilemoma, malignant, dosed 103 weeks, study length 104 weeks). Besides, the TD50 came out at 574 mg/kg/day (rat, strain Fischer 344, females, by gavage, site: tongue, lesion: squamous-cell papilloma, dosed 103 weeks, study length 104 weeks); 22.5 mg/kg/day (rat, strain Fischer 344, males, by gavage, site: any site (literature study), lesion: several types, types named in the paper, dosed 103 weeks, study length 104 weeks); 55.3 mg/kg/day (rat, strain Fischer 344, males, by gavage, site: liver + multiple organs, lesion: mononuclear-cell leukemia, dosed 103 weeks, study length 104 weeks); 166 mg/kg/day (rat, strain Fischer 344, males, by gavage, site: lung, lesion: alveolar/bronchiolar carcinoma, dosed 103 weeks, study length 104 weeks); 271 mg/kg/day (rat, strain Fischer 344, males, by gavage, site: mammary gland, lesion: fibroadenoma, dosed 103 weeks, study length 104 weeks); 45.8 mg/kg/day (rat, strain Fischer 344, males, by gavage, site: pituitary gland, lesion: adenoma, NOS, dosed 103 weeks, study length 104 weeks). Also, the TD50 was 8.03 mg/kg/day (inactive) (rat, strain Fischer 344, males, by gavage, site: testis, lesion: interstitial-cell tumor, dosed 103 weeks, study length 104 weeks) and 389 mg/kg/day (rat, strain Fischer 344, males, by gavage, site: thyroid gland, lesion: follicular-cell carcinoma, dosed 103 weeks, study length 104 weeks).

What is called TD50 is the 50% point of the dose-response relation for the toxic effect studied.

These data come from PubChem BioAssay AID1745844 (Carcinogenic Potency Database (CPDB), 2022).
